The results in this text go back to patent US5023237A, “Methods and compositions for healing ulcers” (priority 1989, dated 1991).

Assay [1] relates to Stomach ulcers induced by the Shay procedure. Briefly: Shay model, stomach ulcer formation and acid secretion (Example 8). In kind it is in vivo, rat. As to conditions: for pH: stomach contents after 24 hours; for % WITH ULCERS: positive if a single lesion is noted; for Ulcer formation and stomach acid secretion, in words: Shay model, compared with saline controls. Here is the method: Stomach ulcers were induced in rats by the Shay procedure. Briefly, the passage between the stomach and the intestine in the rat is tied off, thereby causing a buildup of stomach acid. Ulcer formation is visible after 18-24 hours of ligation.
For treatment, the rats received either GHL-Cu or a derivative in 0.25 ml of saline into the stomach via a gastric feeding tube immediately after the surgical procedure. Control rats received saline only. After 24 hours, the rats were sacrificed, the stomachs were removed and photographed. The acidity of the stomach contents was also measured.
In the experiments reported here, the rats were treated with various doses of glycyl-L-histidyl-L-lysine (GHL), GHL-Cu (2:1), or GHL-Cu (1:1) complex of various analogs of GHL as the 1:1 copper complexes.
Stomach ulcers were induced in groups of rats as described above. The animals were dosed with increasing amounts of either GHL:Cu at a molar ration of 2 moles of GHL to 1 mole of Cu (2:1), equimolar complex (1:1), and GHL without copper. After 24 hours, the stomachs were removed, the pH was determined and the percent of stomachs with visible ulcers was determined.
The presence of ulcers is scored positive if a single lesion is noted, regardless of the size.

In assay [2] the test system is Stomach ulcers induced by the Shay procedure (buildup of stomach acid). Briefly: Shay model, stomach acidity and mucous secretion (Example 7). The format is in vivo, rat. The conditions noted are these: rats, after 24 hours; for Stomach acidity pH ± standard deviation: 10 mg in 0.25 ml saline intubated into the stomach. More on the design: key to Mucous Production: 0 represented substantially no mucous observed; ++++ represented a very heavy mucous secretion. Here is the method:
Stomach ulcers were induced in rates by the Shay procedure. Briefly stated, the passage between the stomach and the intestine in the rat is tied off, thereby causing a buildup of stomach acid, resulting in ulceration. For treatment, the rats received 10 mg of GHL or GHL-Cu or a derivative thereof in 0.25 ml saline intubated into the stomach. Control rats received saline only. After 24 hours, the stomachs were photographed and the stomach acidity determined.
The results of the experiments are shown in Table 1, which depicts the inhibition of stomach acid accumulation and stimulation of cytoprotective mucous secretion in the rats. The mucous production was visually rated from 0 to ++++, where 0 represented substantially no mucous observed and ++++ represented a very heavy mucous secretion.

The subject of assay [3] is Duodenal ulcers induced by cysteamine. The experiment in a line: Healing of cysteamine-induced duodenal ulcers (Example 9). The format is in vivo, S.D. rats. As to conditions: for Healing of duodenal ulcers, in words: drinking water treatment, compared to controls. Here is the method: Cysteamine will induce chronic duodenal ulcers in rats when injected subcutaneously (Olsen, P. S., Poulsen, S. S., Therkelsen, K., and Nexo, E., Oral administration of synthetic human urogastrone promotes healing of chronic duodenal ulcers in rats, Gastroenterology 90:911-917 (1986)).
Duodenal ulcers were induced in a group of 40 S.D. rats (male and female) by subcutaneous injections of cysteamine (350 mg/kg and 175 mg/kg) 6 hours apart. Saline was injected subcutaneously (5 cc) to provide fluid. Surviving animals (n=34) were followed for 7 days then laparotomies were performed. External examinations of the duodenum were made to determine extent of adhesion of the liver or other surrounding tissues. Animals with duodenal ulcers were randomized (by sex) to receive GHL-Cu (2:1) in distilled water, or plain distilled water. Animals were maintained for 25 days after which they were sedated, stomachs and duodenums removed and dissected for internal inspection. The results were obtained and recorded, specimens immersed in 10% buffered formalin for analysis with a stereomicroscope.
(§1) The following rating scale was used to express severity of ulceration:
(§2) 0--no indication of ulceration
1--mild ulceration, no extension through duodenum
2--moderate ulceration, fixation of surrounding tissue
3--extreme ulceration through duodenum
On the day of laparotomy, 28 rats ([…]) were determined to have significant adhesion of the duodenum to surrounding tissues. These animals were randomized by sex to either the GHL-Cu or control group. Following 25 days of drinking water treatment (total dose per day of 0.6 mg/kg), rats were sedated and prepped for dissection. The stomach and duodenum were removed, notations made as to extent of residual adhesions. Internal inspection of the duodenum was made prior to immersion of specimen in 10% formalin. Results at the time of gross inspection indicated 11 out of 14 control animals had significant residual ulcerations extending to the liver primarily.

Assay [4] has as its system gastric ulcers induced by 95% ethanol. Briefly: Prevention of ethanol-induced gastric ulcers (Example 10). The format is in vivo, SD rats. As to conditions: for Prevention of ethanol-caused gastric irritation and ulceration, in words: pretreatment, 95% ethanol ingestion; for Ulceration after ethanol, in words: stomachs inspected one hour after ethanol. Here is the method: (§3) A series of ethanol induced gastric ulcer studies was conducted. Ulcers were induced by oral administration of 95% ethyl alcohol (Scan. J. Gastroenterol 23:665-671 (1988)). The studies were conducted to determine both the preventative and healing effects of glycl-L-histidyl-L-lysine:Cu.
A dose of 2.0 ml/kg 95% ethanol was chosen to induce gastric ulcers in rats. Prior to the ethanol ingestion, three groups of rats were pretreated with 0.5 ml of 2% glycyl-L-histidyl-L-lysine:Cu (1:1) as follows:
Group 1: 2 hours prior to Ethanol dosing
Group 2: 4 hours prior to Ethanol dosing
Group 3: 6 hours prior to Ethanol dosing
In addition, 4 rats served as controls with no pretreatment. One hour following ethanol administration, the stomachs were removed and inspected for ulceration as described above.

Assay [5] has as its system ulcers induced by 95% ethanol. The experiment in a line: Healing of ethanol-induced gastric ulcers (Example 10). In kind it is in vivo, rats. As to conditions: for Healing of ethanol-induced ulcers, in words: drinking water treatment, compared to controls; for # animals with rating 0 (no indication of ulceration) / # animals with rating 1 (some irritation) / # animals with rating 2 (small ulcers present) / # animals with rating 3 (large ulcers present): day 7. Here is the method: as §3
The ability of glycyl-L-histidyl-L-lysine:Cu (2:1) to heal ulcers induced by 95% ethanol has also been examined. In this study, ulcers were induced by administration of 4 ml/kg of 95% ethanol. The rats were then treated with glycyl-L-histidyl-L-lysine:Cu (2:1) in the drinking water at a dose of 0.01 mg/ml and 0.1 mg/ml (total dose per day of 1.6 mg/kg and 16 mg/kg, respectively). The rats were terminated at day 7 after ulcer induction and the stomachs examined for the presence of ulcers.
as §1, §2

The mark [6] stands for this setting: microscopic examination, 25 days drinking water, 0.6 mg/kg per day.
[7] abbreviates: GHL-Cu (2:1) 0.01 mg/ml in drinking water (1.6 mg/kg per day).
[8] abbreviates: GHL-Cu (2:1) 0.1 mg/ml in drinking water (16 mg/kg per day).

“Also recorded” adds a separate entry of the source. Peptide text beside a SMILES is read from it.

For `NCCCC[C@H](NC(=O)[C@H](Cc1c[nH]cn1)NC(=O)CN)C(=O)O` [GHL, glycyl-L-histidyl-L-lysine] (H-Gly-His-Lys-OH), the pH in assay [1] (dose 10 mg into stomach) came out at 2.84 ± 0.90 pH. Besides, in assay [1] (dose 10 mg, after 24 hours), the “% WITH ULCERS” value worked out at 40%. Also, the “Stomach acidity pH ± standard deviation” value in assay [2] is reported as 3.26 ± 0.47 pH.
Consider “L-lysyl-L-histidyl-glycine:copper(II) [LGH-Cu]”, for which the “Healing of duodenal ulcers, in words” value in assay [3] is recorded as “accelerate the healing of established duodenal ulcers”. The “Ulcer formation and stomach acid secretion, in words” value in assay [1] was “decreased stomach acid secretion and resulted in fewer visible lesions”. The pH in assay [1] (dose 3 mg into stomach) was found to be 3.61 ± 1.00 pH. For the same compound, the “% WITH ULCERS” value in assay [1] (dose 3 mg, after 24 hours) came to 11%. Also, the “Prevention of ethanol-caused gastric irritation and ulceration, in words” value in assay [4] was “prevent gastric irritation and ulceration”. Besides, the “Healing of ethanol-induced ulcers, in words” value in assay [5] is “accelerate the healing of ulcers”.
On to “glycyl-L-histidyl-L-lysine n-octyl ester:copper(II) [GHL octyl ester:Cu]”, for which the pH in assay [1] (dose 3 mg into stomach) is 3.50 ± 1.18 pH; in assay [1] (dose 10 mg into stomach), 6.18 ± 0.98 pH. Moreover, the “% WITH ULCERS” value is 25% in assay [1] (dose 3 mg, after 24 hours) and 0% in assay [1] (dose 10 mg, after 24 hours).
Take “glycyl-L-histidyl-L-lysine:Cu (1:1) [GHL-Cu(1:1)]”: the “Lesion formation, in words (photographs, FIG. 1)” value in assay [1] (10 mg, after 24 hours) is “complete inhibition of lesion formation”. Also, the “Ulcer formation and stomach acid secretion, in words” value in assay [1] was “inhibited ulcer formation and raised the pH of the stomach contents in a dose responsive manner”. Moreover, the results for the pH in assay [1] (dose 1 mg into stomach), in assay [1] (dose 3 mg into stomach) and in assay [1] (dose 10 mg into stomach) were 3.80 ± 1.34 pH, 4.85 ± 1.17 pH and 7.23 ± 0.64 pH, respectively. For the same compound, the “% WITH ULCERS” value in assay [1] (dose 1 mg, after 24 hours) came out at 33%; in assay [1] (dose 3 mg, after 24 hours), 0%; in assay [1] (dose 10 mg, after 24 hours), 0%. Also, the “Ulceration after ethanol, in words” value in assay [4] (0.5 ml of 2% solution 2 hours prior to 2.0 ml/kg 95% ethanol) is recorded as “No evidence of ulceration; also recorded: totally blocking damage”; in assay [4] (0.5 ml of 2% solution 4 hours prior to 2.0 ml/kg 95% ethanol) it was “Significantly better than controls, however, small ulcers were visible”; in assay [4] (0.5 ml of 2% solution 6 hours prior to 2.0 ml/kg 95% ethanol), “Mixed results”.
Take “glycyl-L-histidyl-L-lysine:Cu (2:1) [GHL-Cu(2:1)]”: the “Healing of duodenal ulcers, in words” value in assay [3] is given as “the severity was reduced”. For the same compound, in assay [3] (setting [6]), the “# animals with rating 0 (no indication of ulceration)” value worked out at 4 animals; the “# animals with rating 1 (mild ulceration, no extension through duodenum)” value is on record as 5 animals; the “# animals with rating 2 (moderate ulceration, fixation of surrounding tissue)” value came out at 3 animals; the “# animals with rating 3 (extreme ulceration through duodenum)” value is recorded as 2 animals. Besides, the “Ulcer formation and stomach acid secretion, in words” value in assay [1] was “inhibited ulcer formation and raised the pH of the stomach contents in a dose responsive manner”. Besides, the pH in assay [1] (dose 3 mg into stomach) was determined as 2.72 ± 1.03 pH. For the same compound, the “% WITH ULCERS” value in assay [1] (dose 3 mg, after 24 hours) came out at 50%. Also, the pH in assay [1] (dose 10 mg into stomach) was 6.38 ± 1.01 pH. Moreover, in assay [1] (dose 10 mg, after 24 hours), the “% WITH ULCERS” value is 11%.
In the case of “glycyl-L-histidyl-L-lysine:copper(II) [GHL-Cu]”, the “Animals with residual ulcerations at gross inspection” value in assay [3] (GHL-Cu (2:1) in drinking water 25 days, 0.6 mg/kg per day, control 11 out of 14) was 7 out of 14. Besides, the “Healing of duodenal ulcers, in words” value in assay [3] is recorded as “accelerate the healing of established duodenal ulcers”. Further, the “Ulcer formation and stomach acid secretion, in words” value in assay [1] was “decreased stomach acid secretion and resulted in fewer visible lesions”. Besides, the “Prevention of ethanol-caused gastric irritation and ulceration, in words” value in assay [4] is “prevent gastric irritation and ulceration”. In addition, in assay [5] (setting [7]), the “# animals with rating 0 (no indication of ulceration)” value is reported as 5 animals, the “# animals with rating 1 (some irritation)” value is given as 2 animals, the “# animals with rating 2 (small ulcers present)” value stood at 0 animals and the “# animals with rating 3 (large ulcers present)” value turned out to be 0 animals. In assay [5] (setting [8]), the “# animals with rating 0 (no indication of ulceration)” value is recorded as 5 animals, the “# animals with rating 1 (some irritation)” value turned out to be 1 animals, the “# animals with rating 2 (small ulcers present)” value was found to be 1 animals and the “# animals with rating 3 (large ulcers present)” value turned out to be 0 animals. Also, the “Healing of ethanol-induced ulcers, in words” value in assay [5] is recorded as “majority of the animals had no demonstrable ulcers; also recorded: accelerate the healing of ulcers”. For the same compound, the “Stomach acidity pH ± standard deviation” value in assay [2] is reported as 6.94 ± 0.25 pH. In assay [2] (10 mg in 0.25 ml saline, visually rated 0 to ++++), the “Mucous Production” value was “++++”.
